We go through two molecules from patent US8110220B2, “Temperature sensitive polymers” (Universiteit Utrecht, priority 2005, dated 2012).

The data set in a line: Degradation kinetics (hydrolysis) of oligolactate monomers, HPLC. It counts as physicochemical. The note with it: pH 7.4, 37° C. The method, then:
The degradation kinetic studies of HEMAm-oligolactates were conducted as described by Neradovic et al [Macromolecules; 2003; 36(20); 7491-7498]. In brief, a 10 mM solution of HEMAm-oligolactate in DMSO was diluted 10 times with 100 mM PBS (pH 7.4) in a glass vial and the pH was adjusted to pH 7.4 with 4 M HCl. The resulting solutions of HEMAm-monolactate, -dilactate, -trilactate and—tetralactate were incubated in a shaking water bath at 37° C. At regular time intervals samples of 300 μl were withdrawn and 700 μl of 1 M sodium acetate buffer (pH 3.8) was added to prevent further hydrolysis. The samples were stored at 4° C. prior to HPLC analysis. The hydrolysis of HEMAm-trilactate and—tetralactate was also investigated in an acetonitril-PBS pH7.2 mixture (50:50 w/w) of lower dielectric constant to slow down the hydrolysis rate. The HPLC analysis was carried out on a Waters system (Waters Associates Inc., Milford, Mass., USA). This consisted of a pump Model 600, an autoinjector Model 717, a variable wavelength absorbance detector Model 996 and an analytical reversed phase column LiChrosphere 100 RP-18 (5 μm, 125×4 mm i.d.) with an RP-18 guard column (4×4 mm) (Merck) was used. The injection volume was 50 μl and the detection wavelength was 254 nm. […] The chromatograms were analyzed with Empower Software Version 1154 (Waters Associates Inc.). […]

SMILES strings stand for the structures.

Regarding `C=C(C)C(=O)NCCOC(=O)C(C)OC(=O)C(C)OC(=O)C(C)O` (centres unmarked) [HEMAm-Lac3, HEMAm-trilactate], the hydrolysis kinetics compared entry was “even faster hydrolysis kinetics than HEMAm-Lac1-2”. For the molecule `C=C(C)C(=O)NCCOC(=O)C(C)OC(=O)C(C)OC(=O)C(C)OC(=O)C(C)O` (centres unmarked) [HEMAm-Lac4, HEMAm-tetralactate], the hydrolysis kinetics compared result is on record as “even faster hydrolysis kinetics than HEMAm-Lac1-2”.
